# From patent US20220249680A1, “ANTIBODY-ALK5 INHIBITOR CONJUGATES AND THEIR USES” (Synthis Therapeutics, Inc., priority 2019, published 2022)
# What was measured:
# [1] = test system: primary mouse CD4+ T cells; test: MTS proliferation assay, TGF-β1 treated primary mouse CD4+ T cells; format: cell-based
# Experimental: Compounds A-D were tested to determine whether they could inhibit TGF-β signaling in primary mouse CD4^+ T cells.
# Primary mouse CD4^+ T cells were isolated from the spleens of C57/B6 mice using the RoboSep™ cell isolation system (Stemcell Technologies). 0.5 μg/ml of hamster anti-mouse CD3e antibody (145-2C11; eBioscience) was coated onto a 96 well flat bottom plate overnight. 1×10^5 purified CD4^+ T cells were incubated with 1 μg/ml soluble hamster anti-mouse CD28 antibody (37.51, BD Biosciences), 1 nM TGF-β1 and 8-fold serial dilutions of Compounds A-D. After 72 hours, cell proliferation was measured using an MTS assay (Promega) in accordance with the manufacturer's instructions.
# ALK5 = biological target: T1, ALK5 (Homo sapiens, UniProt P36897); test: recombinant kinase assays (IC50 and Ki); format: biochemical; conditions: Compound C versus Compound N
# T1 sequence (P36897 34-503): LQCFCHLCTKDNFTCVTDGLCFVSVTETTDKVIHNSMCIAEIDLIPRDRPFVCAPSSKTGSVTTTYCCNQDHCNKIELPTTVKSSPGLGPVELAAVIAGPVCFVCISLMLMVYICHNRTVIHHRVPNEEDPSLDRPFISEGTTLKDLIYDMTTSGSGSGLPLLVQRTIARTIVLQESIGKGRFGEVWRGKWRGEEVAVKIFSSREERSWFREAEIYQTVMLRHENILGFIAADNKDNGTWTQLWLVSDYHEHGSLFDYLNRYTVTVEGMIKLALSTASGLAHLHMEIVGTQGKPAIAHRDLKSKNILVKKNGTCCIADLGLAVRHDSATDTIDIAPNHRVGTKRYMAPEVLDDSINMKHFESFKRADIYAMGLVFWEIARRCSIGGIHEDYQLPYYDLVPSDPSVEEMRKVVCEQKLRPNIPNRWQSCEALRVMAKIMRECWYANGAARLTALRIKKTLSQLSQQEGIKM
# Text: Compound N was compared to Compound C in a number of in vitro assays.
# [2] = test system: CMV responsive human PBMCs; test: Cytokine secretion assay (IFN-γ) with CMV antigens; format: cell-based; conditions: 1 nM TGF-β, 1 ng/ml each agent, 48 hours
# Experimental: In a 96-well round bottom plate, 1.5×10^5 CMV responsive human PBMCs (Astarte Biologics) were cultured with 1.5 μg/ml CMV antigens (Astarte Biologics) in serum free medium for 48 hours alone or in the presence of (i) 1 nM TGF-β, (ii) 1 nM TGF-β and T3A #5 at 1 ng/ml, (iii) 1 nM TGF-β and pembrolizumab at 1 ng/ml, (iv) 1 nM TGF-β, T3A #5 at 1 ng/ml, and pembrolizumab at 1 ng/ml, or (v) 1 nM TGF-β and isotype control antibody (negative control). IFN-γ levels were measured in the supernatants using a R&D ELISA kit.
Compound,"Experiment 1 IC50 (nM) ([1]; 1 nM TGF-β1, 72 hours)",reversal of TGFβ-mediated inhibition of T cell proliferation ([1]; in words),also measured
"Cc1cccc(-c2nc(N)sc2-c2ccc3ncccc3n2)n1 [Compound A, 4-(6-methylpyridin-2-yl)-5-(1,5-naphthyridin-2-yl)-1,3-thiazol-2-amine]",Value not obtained,did not show consistent effects,
"CNCCOc1ccc(-c2cc(-c3c[nH]nc3-c3ccccn3)ccn2)cc1 [Compound B, N-methyl-2-(4-{4-[3-(pyridin-2-yl)-1H-pyrazol-4-yl]pyridin-2-yl}phenoxy)ethan-1-amine]",,reversed TGFβ-mediated inhibition of T cell proliferation,
"CNCCOc1ccc(-c2cc(-c3c[nH]nc3-c3cccc(C)n3)ccn2)cc1 [Compound C, N-methyl-2-(4-{4-[3-(6-methylpyridin-2-yl)-1H-pyrazol-4-yl]pyridin-2-yl}phenoxy)ethan-1-amine]",,reversed TGFβ-mediated inhibition of T cell proliferation,potency relative to Compound N in the recombinant assays (ALK5): 10 fold
"CCNC(=O)c1ccc2c(c1)NC(=O)/C2=C(\Nc1ccc(N(CCNC)S(C)(=O)=O)cc1)c1ccccc1 [Compound D, (Z)-N-ethyl-3-(((4-(N-(2-(methylamino)ethyl)methylsulfonamido)phenyl)amino)(phenyl)methylene)-2-oxoindoline-6-carboxamide]",Value not obtained,,"Experiment 2 IC50 (nM) ([1]; Experiment 2, 1 nM TGF-β1, 72 hours): Value not obtained; IC50 value in mouse CD4+ T cells ([1]; two different experiments, in words): not obtained"
"pembrolizumab: T cell checkpoint inhibitor (anti-PD1, Merck)",,,IFN-γ levels [2]: increase IFN-γ levels
